Assays:
[1] = test system: Musca domestica; experiment: Insecticidal activity against female Musca domestica (house fly) assessed as mortality compound topically applied to the abdomen measured per fly after 24 hr; assay type: functional
[2] = test system: Tribolium castaneum; experiment: Insecticidal activity against fourth-instar Tribolium castaneum (red flour beetle) assessed as inhibition of larval weight gain at 30 degC measured after 2 days by feeding method; assay type: functional

SMILES	LD50 [1]	I50 [2]	pLD50 [1]
COP1(=S)NCC(c2cccc(C(F)(F)F)c2)O1 (stereo not given)	>1 µg	>100 ppm	–
COP1(=S)NCC(c2ccc(C(F)(F)F)cc2)O1 (stereo not given)	>1 µg	>100 ppm	–
COP1(=S)NCC(c2ccc(C)cc2C)O1 (stereo not given)	0.73 µg	33 ppm	–
COP1(=S)NCC(c2cc(C)ccc2C)O1 (stereo not given)	0.23 µg	84 ppm	–
CCc1ccc(C2CNP(=S)(OC)O2)cc1 (stereo not given)	0.22 µg	3.7 ppm	3.07
COP1(=S)NCC(c2ccc(C(C)C)cc2)O1 (stereo not given)	0.42 µg	5.2 ppm	2.81
COP1(=S)NCC(c2ccccc2)O1 (stereo not given)	0.035 µg	43 ppm	3.82
COP1(=S)NCC(C)(c2ccccc2)O1 (stereo not given)	0.88 µg	>100 ppm	–
COP1(=S)NCC(c2ccccc2)(C(C)C)O1 (stereo not given)	>1 µg	>100 ppm	–
CCOC(OCC)C1(c2ccccc2)CNP(=S)(OC)O1 (stereo not given)	>1 µg	>100 ppm	–
COP1(=S)NCC(c2ccccc2)(c2ccccc2)O1 (stereo not given)	>1 µg	>100 ppm	–
COP1(=S)NCC(Cc2ccccc2)O1 (stereo not given)	>1 µg	>100 ppm	–
COP1(=S)NCC(CCc2ccccc2)O1 (stereo not given)	>1 µg	>100 ppm	–
COP1(=S)NCC(C(C)c2ccccc2)O1 (stereo not given)	>1 µg	>100 ppm	–
COP1(=S)NCC(c2cccc3ccccc23)O1 (stereo not given)	0.68 µg	25 ppm	–
COP1(=S)NCC(C)(c2cccc3ccccc23)O1 (stereo not given)	>1 µg	>100 ppm	–
COP1(=S)NCC(C2CC=CCC2)O1 (stereo not given)	>1 µg	>100 ppm	–

SMILES	LD50 [1]	I50 [2]	pLD50 [1]
COP1(=S)NCC(C2CCCCC2)O1 (stereo not given)	>1 µg	>100 ppm	–
COP1(=S)NCC2(CCCCC2)O1 (stereo not given)	>1 µg	>100 ppm	–
COP1(=S)NCC2(CCCC(C)C2)O1 (stereo not given)	>1 µg	>100 ppm	–
COP1(=S)NCC2(CC3CCC2(C)C3(C)C)O1 (stereo not given)	>1 µg	>100 ppm	–
COP1(=S)NCC2(O1)C1CCC(C1)C2(C)C (stereo not given)	>1 µg	>100 ppm	–
COP1(=S)NCC2(CCCc3ccccc32)O1 (stereo not given)	>1 µg	>100 ppm	–
COP1(=S)NCC2(Cc3ccccc3C2)O1 (stereo not given)	>1 µg	>100 ppm	–
COP1(=S)NCC(c2ccccc2Br)O1 (stereo not given)	0.5 µg	49 ppm	2.79
COP1(=S)NCC(c2cccc(Br)c2)O1 (stereo not given)	0.2 µg	59 ppm	3.19
COP1(=S)NCC(C)(c2cccc(Br)c2)O1 (stereo not given)	0.29 µg	>100 ppm	–
COP1(=S)NCC(c2ccc(Br)cc2)O1 (stereo not given)	0.21 µg	>100 ppm	3.13
COP1(=S)NCC(c2ccccc2Cl)O1 (stereo not given)	0.53 µg	72 ppm	2.7
COP1(=S)NCC(c2cccc(Cl)c2)O1 (stereo not given)	0.24 µg	>100 ppm	3.04
COP1(=S)NCC(c2ccc(Cl)cc2)O1 (stereo not given)	0.16 µg	>100 ppm	3.22
COP1(=S)NCC(c2cccc(Cl)c2Cl)O1 (stereo not given)	>1 µg	>100 ppm	–
COP(=S)(OC)Oc1ccc([N+](=O)[O-])c(C)c1 [FENITROTHION]	0.051 µg	4.7 ppm	–

From ChEMBL document CHEMBL3045238, “Structure-Activity Studies of Insecticidal 2-Methoxy-1, 3, 2-oxazaphospholidine 2-Sulfides against Musca domestica and Tribolium castaneum” (J Pestic Sci, 1990)
